# Laboratory results: US5532240A, “Condensed thiophene compound and pharmaceutical use thereof” (Yoshitomi Pharmaceutical Industries, Ltd., priority 1991, dated 1996)
# pKi: −log10 of the molar value.
# Legend:
# [1] = tested on: conditioned avoidance response (CAR); settings: administered with D2 antagonist; cited from earlier work
# [2] = tested on: catalepsy induced by haloperidol; settings: preclinical; cited from earlier work
# [3] = tested on: apomorphine-induced hyperactivity; experiment: Anti-apomorphine action (in mouse); type: in vivo, male dd mice; settings: oral, 60 min before 0.5 mg/kg s.c. apomorphine hydrochloride, movement lowered by 50%
# Procedure: Anti-apomorphine action (in mouse)
# Male dd mice at 3 per group were used for the experiment. The test compound was orally administered to the mice, and 60 minutes later, 0.5 mg/kg of apomorphine hydrochloride was subcutaneously administered. the movement for 20 minutes from immediately after the administration of apomorphine hydrochloride was measured using Valimex (Columbus, USA). Each group was tested four times, and the amount of the test compound necessary to lower the movement by 50% than that of a control group was calculated from a graph and taken as ED50.
# [4] = molecular target: T1, dopamine 2 (D2) receptor (Rattus norvegicus, UniProt P61169); experiment: Affinity for dopamine 2 receptor (tritiated spiperone binding); parameters: species or system Wistar rats; settings: rat corpus striatum synaptosomes; [3H]spiperone 0.2 nM; 37° C., 20 min
# T1 construct: A synaptosome fraction was separated from corpus striatum; from tissue; host or cells: corpus striatum of 9-10 week-old Wistar rats, synaptosome fraction
# Procedure: Affinity for dopamine 2 receptor
# A specific binding of dopamine 2 (D2) receptor was tested according to the method described in Eur. J. Pharmacol. 46, 377 (1977).
# A synaptosome fraction was separated from corpus striatum of 9-10 week-old Wistar rats, and suspended in 50 mM Tris-HCl buffer (pH 7.1) containing 120 mM sodium chloride, 5 mM potassium chloride, 2 mM calcium chloride, 1 mM magnesium chloride, 10 μM pargyline and 0.1% ascorbic acid for the experiment.
# The test compound at several concentrations and tritiated spiperone (final concentration 0.2 nM) were added to the synaptosome suspension, and each mixture was incubated at 37° C. for 20 minutes. After the incubation, the mixture was filtered with suction through Whatman GF/B (trade mark) glass filter. The filter was washed with 50 mM Tris-HCl buffer (pH 7.7), and the radioactivity of the filter was measured by a liquid scintillation counter. Non-specific binding was determined in the presence of 10^-4 M (±)-sulpiride. The concentration necessary for 50% inhibition (IC50) was determined on a graph, and inhibition constant (Ki value) was calculated.
# [5] = Acute toxicity; settings: mouse, in vivo; oral, male ddY mice, observed 5 days; read-out: LD50 (50% lethal dose)
# Description: Male ddY mice weighing 20-28 g were used at 10 per group. They were orally administered with the compound of Example 24 and observed for 5 days after the administration.
# [6] = molecular target: T2, serotonin 2 (5-HT2) receptor (Rattus norvegicus, UniProt P14842); experiment: Affinity for serotonin 2 receptor (tritiated ketanserin binding); parameters: species or system Wistar rats; settings: rat hippocampus crude synaptosomes; [3H]ketanserin 0.2 nM; 37° C., 20 min
# T2 construct: A crude synaptosome fraction was separated from hippocampus; from tissue; host or cells: hippocampus of 9-10 week-old Wistar rats, crude synaptosome fraction
# Procedure: Affinity for serotonin 2 receptor
# A specific binding of serotonin 2 (5-HT2) receptor was tested according to the method described in Mol. Pharmacol. 21, 301 (1981).
# A crude synaptosome fraction was separated from hippocampus of 9-10 week-old Wistar rats, and suspended in 50 mM Tris-HCl buffer (pH 7.7) for the experiment. The test compound at several concentration and tritiated ketanserin (final concentration 0.2 nM) were added to the synaptosome suspension, and each mixture was incubated at 37° C. for 20 minutes. After the incubation, the mixture was filtered with suction through Whatman GF/B (trade mark) glass filter. The filter was washed with 50 mM Tris-HCl buffer (pH 7.7), and the radioactivity of the filter was measured by a liquid scintillation counter. Non-specific binding was determined in the presence of 10^-5 M mianserin. The concentration necessary for 50% inhibition (IC50) was determined on a graph, and inhibition constant (Ki value ) was calculated.
# [7] = tested on: ergometrine-induced head-twitches; experiment: Anti-ergometrine action (head-twitch); type: in vivo, male ddY mice; settings: Mus musculus; oral, 60 min before 20 mg/kg i.p. ergometrine maleate; head-twitch vanished, Probit
# Procedure: Male ddY mice at 12 per group were used for the experiment. The test compound was orally administered to the mice, and 60 minutes later, 20 mg/kg of ergometrine maleate was intraperitoneally administered. The amount of the test compound necessary to vanish the head-twitch reaction for 10 minutes from immediately after the administration of ergometrine maleate was calculated as ED50 value by Probit method.
# [8] = molecular target: T3, serotonin 1A (5-HT1A) receptor (Rattus norvegicus, UniProt P19327); experiment: Affinity for serotonin 1A receptor (tritiated 8-OH-DPAT binding); parameters: species or system Wistar rats; settings: rat hippocampus crude synaptosomes; [3H]8-OH-DPAT 0.2 nM; 37° C., 12 min
# T3 construct: A crude synaptosome fraction was separated from hippocampus; from tissue; host or cells: hippocampus of 9-10 week-old Wistar rats, crude synaptosome fraction
# T3 sequence (P19327 1-422): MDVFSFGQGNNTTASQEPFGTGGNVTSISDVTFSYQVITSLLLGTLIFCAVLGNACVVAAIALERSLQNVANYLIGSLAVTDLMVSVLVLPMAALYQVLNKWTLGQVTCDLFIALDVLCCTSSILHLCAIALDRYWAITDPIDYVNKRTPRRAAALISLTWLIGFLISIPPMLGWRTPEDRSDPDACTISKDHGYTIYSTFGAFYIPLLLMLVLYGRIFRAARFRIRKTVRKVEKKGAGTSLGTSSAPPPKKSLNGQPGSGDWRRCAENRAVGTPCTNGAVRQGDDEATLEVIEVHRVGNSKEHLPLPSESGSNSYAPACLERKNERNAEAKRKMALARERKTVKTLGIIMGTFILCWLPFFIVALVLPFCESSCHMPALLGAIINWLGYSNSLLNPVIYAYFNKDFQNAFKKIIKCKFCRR
# Procedure: Affinity for serotonin 1A receptor
# A specific binding of serotonin 1A (5-HT1A) receptor was tested according to the method described in J. Neurochem. 44, 1685 (1985).
# A crude synaptosome fraction was separated from hippocampus of 9-10 week-old Wistar rats, and suspended in 50 mM Tris-HCl buffer (pH 7.4) containing 1 mM manganese chloride for the experiment. The test compound at several concentrations and tritiated 8-hydroxy-2-dipropyl-aminotetralin(8-OH-DPAT, final concentration 0.2 nM) were added to the synaptosome suspension, and each mixture was incubated at 37° C. for 12 minutes. After the incubation, the mixture was filtered with suction through Whatman GF/B (trade mark) glass filter. The filter was washed with 50 mM Tris-HCl buffer (pH 7.7), and the radioactivity of the filter was measured by a liquid scintillation counter. Non-specific binding was determined in the presence of 10^-5 M serotonin (5-HT). The concentration necessary for 50% inhibition (IC50) was determined on a graph, and inhibition constant (Ki value) was calculated.
# T2 sequence (P14842 whole entry): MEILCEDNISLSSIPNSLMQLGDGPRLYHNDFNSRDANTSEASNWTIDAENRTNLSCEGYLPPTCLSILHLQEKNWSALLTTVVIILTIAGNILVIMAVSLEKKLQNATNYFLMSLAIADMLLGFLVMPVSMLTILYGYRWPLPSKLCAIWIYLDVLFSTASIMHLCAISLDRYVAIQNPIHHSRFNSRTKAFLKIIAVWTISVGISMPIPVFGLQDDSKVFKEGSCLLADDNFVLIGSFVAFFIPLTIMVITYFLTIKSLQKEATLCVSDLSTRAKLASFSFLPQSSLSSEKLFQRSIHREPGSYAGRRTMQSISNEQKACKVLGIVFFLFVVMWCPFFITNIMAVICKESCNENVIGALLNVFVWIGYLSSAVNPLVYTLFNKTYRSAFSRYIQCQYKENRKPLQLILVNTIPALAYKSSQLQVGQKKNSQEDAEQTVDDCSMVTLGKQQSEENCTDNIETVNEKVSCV
# T1 sequence (P61169 whole entry): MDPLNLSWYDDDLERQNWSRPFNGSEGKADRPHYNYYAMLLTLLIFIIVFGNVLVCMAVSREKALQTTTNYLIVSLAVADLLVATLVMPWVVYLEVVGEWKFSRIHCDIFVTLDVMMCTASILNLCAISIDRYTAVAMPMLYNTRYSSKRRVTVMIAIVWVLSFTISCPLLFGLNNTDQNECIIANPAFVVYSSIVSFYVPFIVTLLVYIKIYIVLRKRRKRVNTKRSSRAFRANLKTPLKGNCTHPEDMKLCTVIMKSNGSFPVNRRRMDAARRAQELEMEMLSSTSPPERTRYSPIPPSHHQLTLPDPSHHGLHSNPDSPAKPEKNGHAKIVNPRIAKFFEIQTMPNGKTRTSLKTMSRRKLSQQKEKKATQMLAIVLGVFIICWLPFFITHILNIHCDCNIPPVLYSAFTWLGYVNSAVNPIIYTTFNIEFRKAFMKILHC
SMILES,inhibition of conditioned avoidance response (CAR) [1],effect on catalepsy induced by haloperidol [2],ED50 [3],pKi [4],LD50 at 120 h [5],pKi [6],ED50 [7],pKi [8]
"CCCN(CCC)C1CCc2cccc(O)c2C1 (centres unmarked) [8-OH DPAT, 8-hydroxy-2-dipropyl-aminotetralin]",inhibit conditioned avoidance response (CAR) more potent than that of D2 antagonist only,reverse catalepsy induced by haloperidol,–,–,–,–,–,–
"CC(=O)N1CCc2c(sc(C)c2CCN2CCC(c3noc4cc(F)ccc34)CC2)C1 [Example 24, 6-acetyl-3-(2-(4-(6-fluoro-1,2-benzisoxazol-3-yl)piperidin-1-yl)ethyl)-4,5,6,7-tetrahydro-2-methylthieno[2,3-c]pyridine]",–,–,0.39 mg/kg,9.34,205 mg/kg,10.21,0.37 mg/kg,7.49
